According to patent US7776910B2, “Arylsulfonyl pyrrolidines as 5-HT6 inhibitors” (Roche Palo Alto LLC, priority 2006, dated 2010):
Where a name gives a salt, the structure may show the parent alone.

Columns and labels:
[1] = biological target: T1, recombinant human 5-HT2A receptor (Homo sapiens, UniProt P28223); assay: Radioligand binding studies, 5-HT2A ligand affinity ([3H]Ketanserin competition); conditions: [3H]Ketanserin displacement, membranes of CHO-K1 cells expressing the receptor, pH 7.4, 32° C.; read-out: pKi for the 5-HT2A receptor (converted)
T1 construct: expressed in transfected cells
T1 sequence (P28223 whole entry): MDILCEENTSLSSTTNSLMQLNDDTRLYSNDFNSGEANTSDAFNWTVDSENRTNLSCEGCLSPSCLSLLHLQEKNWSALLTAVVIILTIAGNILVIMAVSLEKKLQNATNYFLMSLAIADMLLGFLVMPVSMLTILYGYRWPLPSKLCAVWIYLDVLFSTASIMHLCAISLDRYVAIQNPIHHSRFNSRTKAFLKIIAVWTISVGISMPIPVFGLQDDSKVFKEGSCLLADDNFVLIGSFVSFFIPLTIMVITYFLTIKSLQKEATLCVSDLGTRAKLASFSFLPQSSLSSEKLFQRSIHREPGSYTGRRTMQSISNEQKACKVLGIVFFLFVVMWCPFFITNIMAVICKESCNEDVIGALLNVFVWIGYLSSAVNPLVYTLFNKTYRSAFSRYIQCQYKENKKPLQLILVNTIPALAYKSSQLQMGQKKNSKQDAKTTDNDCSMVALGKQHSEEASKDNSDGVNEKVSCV
Procedure: (§1) This example illustrates in vitro radioligand binding studies of compound of formula I.
(§2) The binding activity of compounds of this invention in vitro was determined as follows. Duplicate determinations of 5-HT6 ligand affinity were made by competing for binding of [^3H]LSD in cell membranes derived from HEK293 cells stably expressing recombinant human 5-HT6 receptor. Duplicate determinations of 5-HT2A ligand affinity were made by competing for binding of [^3H]Ketanserin (3-(2-(4-(4-fluorobenzoyl)piperidinol)ethyl)-2,4(1H,3H)-quinazolinedione) in cell membranes derived from CHO-K1 cells stably expressing recombinant human 5-HT2A receptor. Membranes were prepared from HEK 293 cell lines by the method described by Monsma et al., Molecular Pharmacology, Vol. 43 pp. 320-327 (1993), and from CHO-K1 cell lines as described by Bonhaus et al., Br J. Pharmacol. June; 115(4):622-8 (1995).
(§3) For estimation of affinity at the 5-HT6 receptor, all determinations were made in assay buffer containing 50 mM Tris-HCl, 10 mM MgSO4, 0.5 mM EDTA, 1 mM ascorbic acid, pH 7.4 at 37° C., in a 250 microliter reaction volume. […]
(§4) Assay tubes containing [^3H] […] LSD or [^3H]Ketanserin were determined as radioactive counts per minute using Packard TopCount.
(§5) Displacement of [^3H]LSD or [^3H]Ketanserin from the binding sites was quantified by fitting concentration-binding data to a 4-parameter logistic equation: […]

[2] = biological target: T2, recombinant human 5-HT6 receptor (Homo sapiens, UniProt P50406); assay: Radioligand binding studies, 5-HT6 ligand affinity ([3H]LSD competition); conditions: [3H]LSD displacement, membranes of HEK293 cells expressing the receptor, pH 7.4, 37° C.; read-out: pKi for the 5-HT6 receptor (converted)
T2 construct: expressed in transfected cells
T2 sequence (P50406 whole entry): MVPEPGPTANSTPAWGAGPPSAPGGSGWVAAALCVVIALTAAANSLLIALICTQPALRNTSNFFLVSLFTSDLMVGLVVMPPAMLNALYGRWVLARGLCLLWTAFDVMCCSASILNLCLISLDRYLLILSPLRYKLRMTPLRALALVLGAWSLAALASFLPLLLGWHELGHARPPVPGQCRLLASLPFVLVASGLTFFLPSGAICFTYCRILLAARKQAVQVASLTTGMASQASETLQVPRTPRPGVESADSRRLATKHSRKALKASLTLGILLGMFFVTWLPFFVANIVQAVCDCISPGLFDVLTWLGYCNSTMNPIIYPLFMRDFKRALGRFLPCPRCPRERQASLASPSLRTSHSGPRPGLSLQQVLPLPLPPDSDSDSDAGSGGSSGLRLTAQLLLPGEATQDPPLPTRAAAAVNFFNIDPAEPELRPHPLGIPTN
Procedure: as §1, §2, §3, §4, §5

Structure (SMILES)	melting point [°C]	other results
Cc1cc(S(=O)(=O)c2ccccc2)ccc1[C@@H]1CCN(S(C)(=O)=O)C1 [Compound 115, 3-(4-Benzenesulfonyl-2-methyl-phenyl)-1-methanesulfonyl-(S)-pyrrolidine]	56 to 58	
CCSc1cccc(S(=O)(=O)c2ccc(C3CCNC3)c(O)c2)c1 (centres unmarked) [5-(3-Ethylsulfanyl-benzenesulfonyl)-2-pyrrolidin-3-yl-phenol]		Ki [1]: ~0.891 nM
Cc1cc(S(=O)(=O)c2ccc(O)cc2)ccc1C1CCN(C)C1 (centres unmarked) (as salt: HCl) [Compound 51, 4-[3-Methyl-4-(1-methyl-pyrrolidin-3-yl)-benzenesulfonyl]-phenol]	186 to 187.5	
CN1CC[C@@H](c2ccc(S(=O)(=O)c3ccc(O)cc3)cc2F)C1 [4-[3-Fluoro-4-(1-methyl-(S)-pyrrolidin-3-yl)-benzenesulfonyl]-phenol]		Ki [2]: ~0.1 nM
CCS(=O)(=O)c1cccc(S(=O)(=O)c2ccc(C3CCNC3)c(O)c2)c1 (centres unmarked) (as salt: HCl) [Compound 20, 5-(3-Ethanesulfonyl-benzenesulfonyl)-2-pyrrolidin-3-yl-phenol]	124.5 to 126.7	
O=S(=O)(c1cccc(F)c1)c1ccc([C@@H]2CCNC2)c(O)c1 (as salt: HCl) [Compound 35, 5-(3-Fluoro-benzenesulfonyl)-2-(S)-pyrrolidin-3-yl-phenol]	239 to 241	
Cc1cc(S(=O)(=O)c2ccc(O)c(C(C)C)c2)ccc1C1CCNC1 (centres unmarked) [Compound 85, 2-Isopropyl-4-(3-methyl-4-pyrrolidin-3-yl-benzenesulfonyl)-phenol]	125 to 128	
Cc1cc(S(=O)(=O)c2ccc(O)c(Cl)c2)ccc1C1CCNC1 (centres unmarked) (as salt: HCl) [Compound 32, 2-Chloro-4-(3-methyl-4-pyrrolidin-3-yl-benzenesulfonyl)-phenol]	110 to 112.9	
